The text below walks through data of patent US8901118B2, “Compounds and methods for kinase modulation, and indications therefor” (Plexxikon Inc., priority 2010, dated 2014).

pIC50: −log10 of the molar value.

The target in one assay is c-Kit kinase (Homo sapiens, UniProt P10721). Kind of assay: c-Kit kinase biochemical activity assay (AlphaScreen, biotin-(E4Y)10 phosphorylation). The note with it: 100 μM ATP; read-out: Biochemical Inhibition IC50 Kit. Put shortly:
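Phosphorylation of 30 nM biotin-(E4Y)10 by c-Kit (0.75 ng per reaction) with 100 µM ATP in HEPES pH 7.5 buffer with Mg2+/Mn2+, 5% DMSO, 1 h at room temperature; 8-point 1:2 compound dilutions. AlphaScreen detection with streptavidin donor and PY20 acceptor beads after EDTA stop. IC50 from signal versus concentration.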
In general terms: In Alpha technology, singlet oxygen from a donor bead excites a nearby acceptor bead.

The target of the next assay is CYP3A4(BQ) (Homo sapiens, UniProt P08684). In words: CYP3A4(BQ) inhibition. It is filed as in vitro ADME. The following applies: CYP3A4, substrate BQ; read-out: Cyp IC50 3A4(BQ). The method, boiled down:
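Inhibition of human CYP3A4 (BQ substrate) was measured by fluorescence, since blocking metabolism of a known substrate lowers the fluorescent product signal. Compounds dissolved in DMSO at 100 mM were diluted into acetonitrile and then into NADPH regeneration cofactor mix, serially diluted 1:1 across 10 points, and preincubated in 384 well plates for 10 minutes at 37° C.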

Sequence of c-Kit kinase (P10721 26-976): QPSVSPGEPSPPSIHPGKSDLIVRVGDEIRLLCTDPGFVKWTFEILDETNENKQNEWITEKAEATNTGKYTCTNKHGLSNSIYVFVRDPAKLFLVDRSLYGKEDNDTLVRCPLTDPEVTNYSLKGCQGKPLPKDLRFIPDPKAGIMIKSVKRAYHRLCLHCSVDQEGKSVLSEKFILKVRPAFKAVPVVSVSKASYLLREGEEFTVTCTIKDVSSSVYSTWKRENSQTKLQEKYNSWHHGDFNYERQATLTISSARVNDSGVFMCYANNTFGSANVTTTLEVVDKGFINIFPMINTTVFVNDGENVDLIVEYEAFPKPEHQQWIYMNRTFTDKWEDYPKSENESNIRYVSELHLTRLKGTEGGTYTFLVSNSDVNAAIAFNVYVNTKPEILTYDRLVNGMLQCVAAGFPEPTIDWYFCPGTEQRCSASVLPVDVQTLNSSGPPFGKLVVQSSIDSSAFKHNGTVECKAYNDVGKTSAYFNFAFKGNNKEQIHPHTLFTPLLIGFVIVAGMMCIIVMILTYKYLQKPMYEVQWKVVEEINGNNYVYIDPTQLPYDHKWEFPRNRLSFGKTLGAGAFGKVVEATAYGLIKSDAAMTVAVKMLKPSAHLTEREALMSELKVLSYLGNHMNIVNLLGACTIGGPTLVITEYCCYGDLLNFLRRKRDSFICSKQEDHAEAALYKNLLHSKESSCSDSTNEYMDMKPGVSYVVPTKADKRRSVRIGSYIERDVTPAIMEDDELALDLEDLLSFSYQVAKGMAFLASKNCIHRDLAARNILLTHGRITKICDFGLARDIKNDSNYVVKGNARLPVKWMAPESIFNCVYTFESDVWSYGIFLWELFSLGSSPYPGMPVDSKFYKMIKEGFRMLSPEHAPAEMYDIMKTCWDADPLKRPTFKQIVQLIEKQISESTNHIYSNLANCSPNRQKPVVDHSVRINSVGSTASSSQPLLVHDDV
Sequence of CYP3A4(BQ) (P08684 whole entry): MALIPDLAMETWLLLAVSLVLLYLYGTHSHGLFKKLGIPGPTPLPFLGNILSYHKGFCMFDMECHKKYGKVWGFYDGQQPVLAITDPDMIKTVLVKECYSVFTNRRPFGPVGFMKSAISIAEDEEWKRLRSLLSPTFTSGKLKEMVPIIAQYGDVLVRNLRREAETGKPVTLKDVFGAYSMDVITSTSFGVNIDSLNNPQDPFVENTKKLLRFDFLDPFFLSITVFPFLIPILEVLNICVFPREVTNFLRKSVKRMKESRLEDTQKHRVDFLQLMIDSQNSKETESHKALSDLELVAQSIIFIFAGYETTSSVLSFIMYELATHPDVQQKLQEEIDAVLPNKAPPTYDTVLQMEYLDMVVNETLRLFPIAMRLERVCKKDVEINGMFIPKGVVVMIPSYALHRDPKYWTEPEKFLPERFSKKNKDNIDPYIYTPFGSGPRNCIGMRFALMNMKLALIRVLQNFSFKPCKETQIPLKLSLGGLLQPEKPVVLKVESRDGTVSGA

For `Cc1ccc(Nc2ccc(C(=O)c3c[nH]c4ncnc(NCC(F)(F)F)c34)c(F)n2)cn1` [Compound P-4112, [2-fluoro-6-[(6-methyl-3-pyridyl)amino]-3-pyridyl]-[4-(2,2,2-trifluoroethylamino)-7H-pyrrolo[2,3-d]pyrimidin-5-yl]methanone], the negative-log IC50 (pIC50) on c-Kit kinase was above 6.00; at CYP3A4(BQ) it was below 5.00.

Regarding `Cc1ccc(Nc2ccc(C(=O)c3c[nH]c4ncnc(NCC5CC5)c34)c(F)n2)cn1` [Compound P-4113, [4-(cyclopropylmethylamino)-7H-pyrrolo[2,3-d]pyrimidin-5-yl]-[2-fluoro-6-[(6-methyl-3-pyridyl)amino]-3-pyridyl]methanone], the pIC50 on c-Kit kinase is above 7.00; on CYP3A4(BQ), below 5.00.

Consider `CCCNc1ncnc2[nH]cc(C(=O)c3ccc(Nc4ccc(C)nc4)nc3F)c12` [Compound P-4114, [2-fluoro-6-[(6-methyl-3-pyridyl)amino]-3-pyridyl]-[4-(propylamino)-7H-pyrrolo[2,3-d]pyrimidin-5-yl]methanone], for which the pIC50 was above 7.00 at c-Kit kinase and below 5.00 at CYP3A4(BQ).

In the case of `CNc1ncnc2[nH]cc(C(=O)c3ccc(Nc4ccc(C)nc4)nc3F)c12` [Compound P-4115, [2-fluoro-6-[(6-methyl-3-pyridyl)amino]-3-pyridyl]-[4-(methylamino)-7H-pyrrolo[2,3-d]pyrimidin-5-yl]methanone], the pIC50 on c-Kit kinase was above 7.00; on CYP3A4(BQ), below 5.00.

Regarding `CCc1ccc(Nc2ccc(C(=O)c3c[nH]c4ncnc(NC5CCOCC5)c34)c(F)n2)cn1` [Compound P-4116, [6-[(6-ethyl-3-pyridyl)amino]-2-fluoro-3-pyridyl]-[4-(tetrahydropyran-4-ylamino)-7H-pyrrolo[2,3-d]pyrimidin-5-yl]methanone], the figures for the pIC50 on c-Kit kinase and on CYP3A4(BQ) were above 7.00 and below 5.00, respectively.

For the compound `CCc1ccc(Nc2ccc(C(=O)c3c[nH]c4ncnc(NC(C)C)c34)c(F)n2)cn1` [Compound P-4117, [6-[(6-ethyl-3-pyridyl)amino]-2-fluoro-3-pyridyl]-[4-(isopropylamino)-7H-pyrrolo[2,3-d]pyrimidin-5-yl]methanone], the figures for the pIC50 at c-Kit kinase and on CYP3A4(BQ) were above 7.00 and below 5.00, respectively.

Turning to `CCc1ccc(Nc2ccc(C(=O)c3c[nH]c4ncnc(NCC5CC5)c34)c(F)n2)cn1` [Compound P-4118, [4-(cyclopropylmethylamino)-7H-pyrrolo[2,3-d]pyrimidin-5-yl]-[6-[(6-ethyl-3-pyridyl)amino]-2-fluoro-3-pyridyl]methanone], the pIC50 at c-Kit kinase was above 7.00; at CYP3A4(BQ) it was below 5.00.

Take `CCc1ccc(Nc2ccc(C(=O)c3c[nH]c4ncnc(NCCOC)c34)c(F)n2)cn1` [Compound P-4119, [6-[(6-ethyl-3-pyridyl)amino]-2-fluoro-3-pyridyl]-[4-(2-methoxyethylamino)-7H-pyrrolo[2,3-d]pyrimidin-5-yl]methanone]: the negative logarithm of the IC50 (pIC50) on c-Kit kinase was above 8.00; on CYP3A4(BQ), below 5.00.

In the case of `CCc1ccc(Nc2ccc(C(=O)c3c[nH]c4ncnc(NCC(F)(F)F)c34)c(F)n2)cn1` [Compound P-4120, [6-[(6-ethyl-3-pyridyl)amino]-2-fluoro-3-pyridyl]-[4-(2,2,2-trifluoroethylamino)-7H-pyrrolo[2,3-d]pyrimidin-5-yl]methanone], the pIC50 at c-Kit kinase is above 7.00; on CYP3A4(BQ), below 5.00.

Turning to `CCc1ccc(Nc2ccc(C(=O)c3c[nH]c4ncnc(NCC(C)C)c34)c(F)n2)cn1` [Compound P-4121, [6-[(6-ethyl-3-pyridyl)amino]-2-fluoro-3-pyridyl]-[4-(isobutylamino)-7H-pyrrolo[2,3-d]pyrimidin-5-yl]methanone], the pIC50 on c-Kit kinase is above 8.00; on CYP3A4(BQ), below 5.00.

As to `CCCNc1ncnc2[nH]cc(C(=O)c3ccc(Nc4ccc(CC)nc4)nc3F)c12` [Compound P-4122, [6-[(6-ethyl-3-pyridyl)amino]-2-fluoro-3-pyridyl]-[4-(propylamino)-7H-pyrrolo[2,3-d]pyrimidin-5-yl]methanone], the values for the pIC50 on c-Kit kinase and at CYP3A4(BQ) were above 8.00 and below 5.00, respectively.

Turning to `CCNc1ncnc2[nH]cc(C(=O)c3ccc(Nc4ccc(CC)nc4)nc3F)c12` [Compound P-4123, [4-(ethylamino)-7H-pyrrolo[2,3-d]pyrimidin-5-yl]-[6-[(6-ethyl-3-pyridyl)amino]-2-fluoro-3-pyridyl]methanone], the values for the pIC50 on c-Kit kinase and on CYP3A4(BQ) were above 8.00 and below 5.00, respectively.

Turning to `CCc1ccc(Nc2ccc(C(=O)c3c[nH]c4ncnc(NC)c34)c(F)n2)cn1` [Compound P-4124, [6-[(6-ethyl-3-pyridyl)amino]-2-fluoro-3-pyridyl]-[4-(methylamino)-7H-pyrrolo[2,3-d]pyrimidin-5-yl]methanone], the pIC50 at c-Kit kinase was above 8.00; on CYP3A4(BQ) it was below 5.00.

Regarding `CCc1ccc(Nc2ccc(C(=O)c3c[nH]c4ncnc(NC5CC5)c34)c(F)n2)cn1` [Compound P-4125, [4-(cyclopropylamino)-7H-pyrrolo[2,3-d]pyrimidin-5-yl]-[6-[(6-ethyl-3-pyridyl)amino]-2-fluoro-3-pyridyl]methanone], the results for the pIC50 on c-Kit kinase and at CYP3A4(BQ) were above 7.00 and below 5.00, respectively.

For `COc1ccc(Nc2ccc(C(=O)c3c[nH]c4ncnc(NC5CC5)c34)c(F)n2)cn1` [Compound P-4126, [4-(cyclopropylamino)-7H-pyrrolo[2,3-d]pyrimidin-5-yl]-[2-fluoro-6-[(6-methoxy-3-pyridyl)amino]-3-pyridyl]methanone], the pIC50 at c-Kit kinase is above 7.00; on CYP3A4(BQ), 5.00 to 5.30.

As for `Fc1cc(Cc2c[nH]c3ncnc(NC4CC4)c23)cnc1NC1CCC(F)(F)CC1` [Compound P-4127, N-cyclopropyl-5-[[6-[(4,4-difluorocyclohexyl)amino]-5-fluoro-3-pyridyl]methyl]-7H-pyrrolo[2,3-d]pyrimidin-4-amine], the pIC50 on c-Kit kinase is above 6.00; at CYP3A4(BQ), above 5.30.

For orientation: pIC50 means the negative decadic logarithm of the IC50, by convention in mol/L.
